Each structure is given as a SMILES string.

The target of the first assay is T1, Stromelysin-1 (Homo sapiens, UniProt P08254). Put plainly: Inhibition of stromelysin-1 (MMP-3).
T1 sequence (P08254 whole entry): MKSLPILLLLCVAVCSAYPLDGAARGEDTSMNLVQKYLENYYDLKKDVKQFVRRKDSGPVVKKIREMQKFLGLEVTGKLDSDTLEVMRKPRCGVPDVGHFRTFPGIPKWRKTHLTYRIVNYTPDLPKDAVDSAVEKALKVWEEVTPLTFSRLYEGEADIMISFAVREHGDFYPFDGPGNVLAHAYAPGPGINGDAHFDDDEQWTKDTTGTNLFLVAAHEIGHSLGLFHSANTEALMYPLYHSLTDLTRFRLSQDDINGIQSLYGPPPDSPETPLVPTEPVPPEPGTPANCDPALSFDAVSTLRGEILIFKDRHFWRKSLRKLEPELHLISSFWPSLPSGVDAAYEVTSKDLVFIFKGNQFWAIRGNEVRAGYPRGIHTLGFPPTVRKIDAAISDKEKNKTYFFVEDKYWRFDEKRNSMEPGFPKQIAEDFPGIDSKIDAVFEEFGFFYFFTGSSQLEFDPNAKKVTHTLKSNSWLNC
The term Ki denotes a dissociation constant, usually derived from enzyme kinetics or from competition with a known ligand. High values mean weaker binding, low ones tighter binding. As for `COc1ccccc1CC[C@H](CP(=O)(O)CCCCN1C(=O)c2ccccc2C1=O)C(=O)N[C@@H](CC(C)C)C(=O)Nc1ccccc1`, the inhibition constant Ki turned out to be 440 nM.

On to `CC(C)C[C@H](NC(=O)[C@H](CCc1ccccc1)CP(=O)(O)CCCCN1Cc2ccccc2C1=O)C(=O)Nc1ccccc1`, for which the inhibition constant (Ki) stood at 5.5 nM.

`CCOC(=O)NCCCCP(=O)(O)C[C@@H](CCc1ccccc1)C(=O)N[C@@H](CC(C)C)C(=O)Nc1ccccc1`: the affinity corresponds to a Ki of 16 nM.

By IC50 is commonly meant the midpoint of a concentration-inhibition curve. Compound `CC(C)C[C@H](NC(=O)[C@H](Cc1ccccc1)CP(=O)(O)CCCCN1C(=O)c2ccccc2C1=O)C(=O)NCc1ccccc1` showed an IC50 of 430 nM. This lies in the sub-micromolar range.

Take `CC(C)C[C@H](NC(=O)[C@H](CCc1ccccc1)CP(=O)(O)C/C=C/CN1C(=O)c2ccccc2C1=O)C(=O)Nc1ccccc1`: the Ki is 4.5 nM.

On to `CC(=O)N1CCC[C@@H]1C(=O)NCCCCP(=O)(O)C[C@@H](CCc1ccccc1)C(=O)N[C@@H](CC(C)C)C(=O)Nc1ccccc1`, for which the inhibition constant Ki turned out to be 26 nM.

On to `CC(C)C[C@H](NC(=O)[C@H](CCc1ccccc1)CP(C)(=O)O)C(=O)Nc1ccccc1`, for which the inhibitory constant (Ki) stood at 1500 nM.

`COc1cccc(CC[C@H](CP(=O)(O)CCCCN2C(=O)c3ccccc3C2=O)C(=O)N[C@@H](CC(C)C)C(=O)Nc2ccccc2)c1` gave an inhibition constant Ki of 2.5 nM.

Consider `CC(C)C[C@H](NC(=O)[C@H](CCc1ccccc1)CP(=O)(O)CCCCNC(=O)NCc1ccccc1)C(=O)Nc1ccccc1`, for which affinity was put at a Ki of 50 nM.

`COC(=O)NCCCCP(=O)(O)C[C@@H](CCc1ccccc1)C(=O)N[C@@H](CC(C)C)C(=O)Nc1ccccc1` registered an inhibitory constant (Ki) of 54 nM.

Compound `CC(C)C[C@H](NC(=O)[C@H](CCc1ccccc1)CP(=O)(O)CCCCNC(=O)OCc1ccccc1)C(=O)Nc1ccccc1` showed a Ki of 63 nM.

As for `CNC(=O)NCCCCP(=O)(O)C[C@@H](CCc1ccccc1)C(=O)N[C@@H](CC(C)C)C(=O)Nc1ccccc1`, the affinity corresponds to a Ki of 130 nM.

`COc1ccc(CC[C@H](CP(=O)(O)CCCCN2C(=O)c3ccccc3C2=O)C(=O)N[C@@H](CC(C)C)C(=O)Nc2ccccc2)cc1` gave an inhibitory constant (Ki) of 2.3 nM. This Ki lies about 57-fold lower than the previous one.

The compound `CC(C)C[C@H](NC(=O)[C@H](CCc1ccccc1)CP(=O)(O)CCC(=O)NCCCc1ccccc1)C(=O)Nc1ccccc1` returned a Ki of 670 nM.

Another assay has as its target T2, 72 kDa type IV collagenase (Homo sapiens, UniProt P08253). Kind of assay: Inhibition of gelatinase-A (MMP-2) at a concentration of 1 uM.
Target sequence in this assay (P08253 110-660 limits assumed): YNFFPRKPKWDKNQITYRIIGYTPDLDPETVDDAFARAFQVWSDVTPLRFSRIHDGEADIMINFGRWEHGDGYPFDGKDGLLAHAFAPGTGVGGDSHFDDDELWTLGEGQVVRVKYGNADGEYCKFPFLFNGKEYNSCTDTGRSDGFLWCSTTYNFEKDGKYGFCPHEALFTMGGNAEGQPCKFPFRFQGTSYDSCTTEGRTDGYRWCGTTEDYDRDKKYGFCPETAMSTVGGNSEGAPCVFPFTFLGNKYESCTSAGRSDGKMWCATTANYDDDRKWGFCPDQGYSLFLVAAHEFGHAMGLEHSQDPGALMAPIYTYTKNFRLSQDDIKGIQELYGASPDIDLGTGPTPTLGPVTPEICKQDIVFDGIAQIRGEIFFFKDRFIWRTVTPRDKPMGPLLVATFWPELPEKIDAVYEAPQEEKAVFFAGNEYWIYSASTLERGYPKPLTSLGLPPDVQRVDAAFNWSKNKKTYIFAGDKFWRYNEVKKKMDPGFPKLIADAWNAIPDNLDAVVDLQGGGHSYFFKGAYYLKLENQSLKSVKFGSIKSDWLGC
For orientation: inhibition means the change of the read-out against control, counted positive when it falls. The low end stands for little suppression, the high end for strong suppression. `CCOC(=O)NCCCCP(=O)(O)C[C@@H](CCc1ccccc1)C(=O)N[C@@H](CC(C)C)C(=O)Nc1ccccc1` yielded an inhibition of 94%.

Consider `CC(=O)N1CCC[C@@H]1C(=O)NCCCCP(=O)(O)C[C@@H](CCc1ccccc1)C(=O)N[C@@H](CC(C)C)C(=O)Nc1ccccc1`, for which the inhibition was 92%.

Turning to `CC(C)C[C@H](NC(=O)[C@H](CCc1ccccc1)CP(=O)(O)CCCCNC(=O)NCc1ccccc1)C(=O)Nc1ccccc1`, the inhibition came to 96%.

`COC(=O)NCCCCP(=O)(O)C[C@@H](CCc1ccccc1)C(=O)N[C@@H](CC(C)C)C(=O)Nc1ccccc1` displayed an inhibition of 90%.

Compound `CC(C)C[C@H](NC(=O)[C@H](CCc1ccccc1)CP(=O)(O)CCCCNC(=O)OCc1ccccc1)C(=O)Nc1ccccc1` yielded an inhibition of 86%.

`CNC(=O)NCCCCP(=O)(O)C[C@@H](CCc1ccccc1)C(=O)N[C@@H](CC(C)C)C(=O)Nc1ccccc1` registered an inhibition of 87%.

`CC(C)C[C@H](NC(=O)[C@H](CCc1ccccc1)CP(=O)(O)CCC(=O)NCCCc1ccccc1)C(=O)Nc1ccccc1` yielded an inhibition of 46%.

The target in another assay is T3, Interstitial collagenase (Homo sapiens, UniProt P03956).
T3 sequence (P03956 whole entry): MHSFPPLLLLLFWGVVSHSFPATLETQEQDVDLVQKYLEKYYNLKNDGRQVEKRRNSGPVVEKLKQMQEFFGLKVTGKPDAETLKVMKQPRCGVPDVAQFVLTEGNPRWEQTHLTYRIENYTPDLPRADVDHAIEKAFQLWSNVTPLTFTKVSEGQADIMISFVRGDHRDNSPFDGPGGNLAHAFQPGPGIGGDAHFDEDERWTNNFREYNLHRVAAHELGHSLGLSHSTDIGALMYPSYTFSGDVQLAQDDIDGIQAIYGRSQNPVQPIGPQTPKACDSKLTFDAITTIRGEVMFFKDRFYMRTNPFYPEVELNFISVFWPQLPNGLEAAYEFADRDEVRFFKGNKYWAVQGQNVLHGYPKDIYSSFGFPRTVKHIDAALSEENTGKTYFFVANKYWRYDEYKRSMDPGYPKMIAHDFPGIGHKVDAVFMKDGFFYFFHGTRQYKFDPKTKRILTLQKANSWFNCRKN
Put plainly: Inhibition of collagenase-1 (MMP-1).
`CC(C)C[C@H](NC(=O)[C@H](CCc1ccccc1)CP(=O)(O)CCC(=O)NCc1ccccc1)C(=O)Nc1ccccc1`: the Ki was not below 10000 nM.

With `CC(C)C[C@H](NC(=O)[C@H](CCc1ccccc1)CP(=O)(O)CCCCN1C(=O)c2ccccc2C1=O)C(=O)Nc1ccccc1`, the Ki is not below 10000 nM.

Take `COc1ccccc1CC[C@H](CP(=O)(O)CCCCN1C(=O)c2ccccc2C1=O)C(=O)N[C@@H](CC(C)C)C(=O)Nc1ccccc1`: the inhibitory constant (Ki) was not below 10000 nM.

Regarding `CC(C)C[C@H](NC(=O)[C@H](CCc1ccccc1)CP(=O)(O)CCCCN1Cc2ccccc2C1=O)C(=O)Nc1ccccc1`, the inhibition constant (Ki) is not below 10000 nM.

The compound `CCOC(=O)NCCCCP(=O)(O)C[C@@H](CCc1ccccc1)C(=O)N[C@@H](CC(C)C)C(=O)Nc1ccccc1` showed a Ki not below 10000 nM.

With `CC(C)C[C@H](NC(=O)[C@H](Cc1ccccc1)CP(=O)(O)CCCCN1C(=O)c2ccccc2C1=O)C(=O)NCc1ccccc1`, inhibition was half-maximal at 4100 nM (IC50). In other words, the single-digit micromolar range.

With `CC(C)C[C@H](NC(=O)[C@H](CCc1ccccc1)CP(=O)(O)C/C=C/CN1C(=O)c2ccccc2C1=O)C(=O)Nc1ccccc1`, the Ki was not below 10000 nM.

`CC(=O)N1CCC[C@@H]1C(=O)NCCCCP(=O)(O)C[C@@H](CCc1ccccc1)C(=O)N[C@@H](CC(C)C)C(=O)Nc1ccccc1` showed a Ki not below 10000 nM.

Take `CC(C)C[C@H](NC(=O)[C@H](CCc1ccccc1)CP(C)(=O)O)C(=O)Nc1ccccc1`: the inhibition constant (Ki) is not below 10000 nM.

`COc1cccc(CC[C@H](CP(=O)(O)CCCCN2C(=O)c3ccccc3C2=O)C(=O)N[C@@H](CC(C)C)C(=O)Nc2ccccc2)c1` registered an inhibition constant (Ki) not below 10000 nM.

The compound `CC(C)C[C@H](NC(=O)[C@H](CCc1ccccc1)CP(=O)(O)CCCCNC(=O)NCc1ccccc1)C(=O)Nc1ccccc1` yielded an inhibition constant (Ki) not below 10000 nM.

`COC(=O)NCCCCP(=O)(O)C[C@@H](CCc1ccccc1)C(=O)N[C@@H](CC(C)C)C(=O)Nc1ccccc1` registered an inhibition constant Ki not below 10000 nM.

In the case of `CC(C)C[C@H](NC(=O)[C@H](CCc1ccccc1)CP(=O)(O)CCCCNC(=O)OCc1ccccc1)C(=O)Nc1ccccc1`, the inhibition constant Ki was not below 10000 nM.

For the compound `CNC(=O)NCCCCP(=O)(O)C[C@@H](CCc1ccccc1)C(=O)N[C@@H](CC(C)C)C(=O)Nc1ccccc1`, the Ki is not below 10000 nM.

The compound `COc1ccc(CC[C@H](CP(=O)(O)CCCCN2C(=O)c3ccccc3C2=O)C(=O)N[C@@H](CC(C)C)C(=O)Nc2ccccc2)cc1` gave an inhibition constant Ki not below 10000 nM.

`CC(C)C[C@H](NC(=O)[C@H](CCc1ccccc1)CP(=O)(O)CCC(=O)NCCCc1ccccc1)C(=O)Nc1ccccc1` yielded a Ki not below 10000 nM.

The target in another assay is T1, Stromelysin-1. Put plainly: Inhibition of stromelysin-1 (MMP-3).
Take `CC(C)C[C@H](NC(=O)[C@H](CCc1ccccc1)CP(=O)(O)CCC(=O)NCc1ccccc1)C(=O)Nc1ccccc1`: affinity was put at a Ki of 540 nM.

The next assay concerns the target T2, 72 kDa type IV collagenase. Put plainly: Inhibition of gelatinase-A (MMP-2).
Target sequence in this assay (P08253 whole entry): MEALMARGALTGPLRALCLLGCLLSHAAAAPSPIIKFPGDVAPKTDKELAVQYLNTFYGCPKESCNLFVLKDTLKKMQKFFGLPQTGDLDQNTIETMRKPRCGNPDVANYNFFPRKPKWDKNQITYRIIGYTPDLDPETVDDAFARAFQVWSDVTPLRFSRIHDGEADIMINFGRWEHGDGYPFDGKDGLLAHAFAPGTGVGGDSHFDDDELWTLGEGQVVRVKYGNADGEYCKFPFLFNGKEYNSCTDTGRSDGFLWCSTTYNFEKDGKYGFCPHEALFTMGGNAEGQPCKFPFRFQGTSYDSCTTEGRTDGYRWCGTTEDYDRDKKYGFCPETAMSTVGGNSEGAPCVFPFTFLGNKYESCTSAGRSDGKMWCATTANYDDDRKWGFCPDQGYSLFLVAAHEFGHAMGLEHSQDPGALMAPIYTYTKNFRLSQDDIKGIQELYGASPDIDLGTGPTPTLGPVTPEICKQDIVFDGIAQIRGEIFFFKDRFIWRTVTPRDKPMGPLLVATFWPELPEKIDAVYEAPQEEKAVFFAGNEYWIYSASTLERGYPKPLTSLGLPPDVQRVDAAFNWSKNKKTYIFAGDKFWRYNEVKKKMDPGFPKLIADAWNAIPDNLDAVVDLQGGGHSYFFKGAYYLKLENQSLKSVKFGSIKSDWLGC
In turn, `CC(C)C[C@H](NC(=O)[C@H](CCc1ccccc1)CP(=O)(O)CCCCN1C(=O)c2ccccc2C1=O)C(=O)Nc1ccccc1` returned a Ki of 20 nM. This lies in the double-digit nanomolar range.

`COc1ccccc1CC[C@H](CP(=O)(O)CCCCN1C(=O)c2ccccc2C1=O)C(=O)N[C@@H](CC(C)C)C(=O)Nc1ccccc1` had a Ki of 4400 nM.

`CC(C)C[C@H](NC(=O)[C@H](CCc1ccccc1)CP(=O)(O)CCCCN1Cc2ccccc2C1=O)C(=O)Nc1ccccc1` returned a Ki of 7.3 nM.

`CC(C)C[C@H](NC(=O)[C@H](CCc1ccccc1)CP(=O)(O)C/C=C/CN1C(=O)c2ccccc2C1=O)C(=O)Nc1ccccc1` had a Ki of 4.8 nM.

Regarding `CC(C)C[C@H](NC(=O)[C@H](CCc1ccccc1)CP(C)(=O)O)C(=O)Nc1ccccc1`, the affinity corresponds to a Ki of 570 nM. Against the preceding compound, the Ki is about 120-fold higher.

In the case of `COc1cccc(CC[C@H](CP(=O)(O)CCCCN2C(=O)c3ccccc3C2=O)C(=O)N[C@@H](CC(C)C)C(=O)Nc2ccccc2)c1`, affinity was put at a Ki of 2.1 nM.

As for `COc1ccc(CC[C@H](CP(=O)(O)CCCCN2C(=O)c3ccccc3C2=O)C(=O)N[C@@H](CC(C)C)C(=O)Nc2ccccc2)cc1`, the affinity corresponds to a Ki of 12 nM. This Ki is about 5.7-fold higher than that of the compound before.

Values taken from ChEMBL document CHEMBL1128968, “Phosphinic acid inhibitors of matrix metalloproteinases” (Bioorg Med Chem Lett, 1996).
